Test results as given in patent US8911953B2, “TDF-related compounds and analogs thereof, analogs and bioactive fragments” (Thrasos Innovation, Inc., priority 2005, dated 2014).
“Also recorded” adds a separate entry of the source. Positions of bridges follow the written chain, without caps; N, C: chain ends. No end group written: not given here.

Key:
[1] = system: NTN mice; assay: Nephrotoxic serum nephritis (NTN) model of chronic renal failure; format: in vivo, mouse; conditions: oral 5 mg/kg/24 hr, weeks 6-9
Excerpt: Attenuation of renal fibrosis progression by TDFRP compound in the chronic renal failure mouse model, nephrotoxic serum nephritis (NTN). A: NTN Model Experimental Protocol. Nephrotoxic serum was given intravenously on Day 0 (D0) and animals were sacrificed either at 6 weeks or 9 weeks. Two different drug regimens were used: treatment from weeks 1-6 or from weeks 6-9. B: Kidney section of 6-9 week, vehicle-treated […] animal, C: Kidney section of animal received oral administration of TDFRP compound (SEQ ID NO 45) (5 mg/kg/24 hr) from weeks 6-9.
Renal fibrosis involves interestitial fibrosis, tubular atrophy, and glomerulosclerosis. The mouse nephrotoxic serum nephritis (NTN) renal fibrosis model mimics human chronic renal injury. NTN mice develop glomerulonephritis following injection with nephrotoxic serum (NTS), which progresses to tubulointerstitial disease and eventually renal fibrosis after 6 weeks (see Lloyd, et al. (1997) J. Exp. Med. 185, 1371-1380.; Zeisberg et al. (2003) Nat. Med. 9, 964-968.)
Nephrotoxic serum nephritis (NTN) is a model of progressive chronic renal injury. Mice given injections of nephrotoxic serum (NTS) develop glomerulonephritis, leading to tubulointerstitial disease associated with EMT, and ultimately renal fibrosis, over a period of about six weeks. […] In these studies, BMP-7 was able to restore expression of E-cadherin proteins in previously damaged tubules. […] For a review of the above see, Zeisberg et al., Nature Medicine, 9; 7 pp 964-968, (2003) and Kalluri et al., J. Clin Investigation 112:1776-1784 (2003).

[2] = system: HK-2 cells; assay: Cisplatin-induced apoptosis in HK-2 cells (Annexin V staining); format: cell-based, human; conditions: 10 uM cisplatin, 500 uM compound, prophylactic or therapeutic
Method: Apoptosis and cell viability are quantified using AnnexinV-FITC and propidium iodide staining of HK-2 cells following cisplatin treatment. Immortalized PTEC-derived HK-2 cells (ATCC number CRL-2190) are cultured in serum-free keratinocyte medium (GIBCO number 17005-042) supplemented with EGF and BPE for 48 hours (Ryan et al. 1994 Kidney Int 45:48-57). Medium is aspirated and cells are washed with PBS and incubated in the dark for 15 min at room temperature with 10 μl of media binding agent and 1.25 μl of FITC conjugated AnnexinV. Propidium iodide (10 μl) is added, and samples are analyzed immediately. Quantification of Annexin V-FITC and propidium iodide signals is performed by fluorescence microscopy (Axiovert 135; Carl Zeiss). Phase contrast images are observed using transmitted light. Apoptotic cells show cytoplasmic staining and viable cells remain unstained (FIG. 17).

[3] = system: cisplatin-treated Sprague-Dawley rats; assay: Rat cisplatin model of acute kidney injury; format: in vivo; conditions: for ICAM-1 in kidney sections: anti-ICAM-1 staining; for ICAM-1 in kidney sections / proliferating cells / cellular regeneration (PCNA) / macrophages accumulating in the kidneys: b674: 2.8 mg/kg bw; for proliferating cells / cellular regeneration (PCNA): anti-PCNA staining; for macrophages accumulating in the kidneys: macrophage-specific marker
Excerpt: The rat cisplatin model has been studied extensively and is considered a relevant model for human acute kidney injury. Kidneys from cisplatin-treated animals show little evidence of cell proliferation. In contrast, animals that are protected or are able to recover from the nephrotoxic effects of cisplatin treatment show proliferation as detected by anti-proliferating cell nuclear antigen or PCNA antibodies. This model provides a mechanism for identifying agents that can protect the kidney from inflammatory cytokine-mediated injury, as well as, in repairing organ damage. Macrophages infiltrate the kidneys of animals treated with cisplatin and this early marker of nephropathy can be detected using anti CD-68 antibodies. Agents that decrease the number of macrophages in kidneys and prevent inflammatory cell-mediated damage associated with cisplatin treatment can be detected using immuno-histological analysis. Kidney sections treated with agents that show increased expression of α-actin in smooth muscle cells (SMC) are indicative of protecting the in integrity of SMC and alleviating injurious damage to the kidney.
Male Sprague-Dawley rats (˜250 gm) are injected ip with 5 mg/kg cisplatin (1 mg/ml in water) at time zero to induce acute renal failure. In this model, clinical signs (rise in serum creatinine) peaks at 4 to 5 days. The test compound and control substances were administered iv via the tail vein as 0.5 ml slow bolus injections. The negative control substance was the vehicle (PBS pH 7.2+5% Mannitol), while the positive control therapy was recombinant human mature BMP-7 (BMP-7 or TDF-1). The end points are serum creatinine and BUN levels and histology.
TDFRP Compound (SEQ ID NO:45) was tested in male Sprague-Dawley rats (250 gm to 300 gm) to establish the dose range and the extent to which the compound is able to prophylactically and therapeutically ameliorate the renal toxic effects of cisplatin. The cisplatin dosing level was the chemotherapeutic level used in humans, 40 ug/kg bw. The end points were the level of creatinine in serum and kidney histology. […]
A stock solution (70 mg/ml) of TDFRP (SEQ ID NO:45) was made by dissolving it in 20 mM Acetate (ph 4.2). The stock solution was further diluted into phosphate buffered saline (PBS, pH 7.2) plus 5% Mannitol to compound concentrations of 14 mg/ml (28 mg/kg dose), 1.4 mg/ml (2.8 mg/kg dose) and 0.14 mg/ml (0.28 mg/kg dose).
Cisplatin was administered via i.p. injection (40 ug/kg bw) at time zero. Administration of therapeutic dosing of the compound, the BMP-7 positive control and vehicle negative control were by slow bolus i.v. injection through the tail vein at five time points: 2 hours before the administration of cisplatin, then at 24 hours, 48 hours, 72 hours and 96 hours post cisplatin administration. Blood samples were collected through the tail vein at time points of 0, 24, 48, 72 and 96 hours. At seven day sample was collected by exsanguination at sacrifice. Serum was prepared from the blood samples and analyzed for creatinine concentration. The serum concentration of creatinine, a byproduct of muscle activity that is released into the blood stream and cleared through the kidneys, is a marker of kidney function that tends to rise when kidney function becomes severely compromised (FIG. 21).
Upon sacrifice at seven days, the kidneys were harvested, fixed in formalin and imbedded in paraffin. They were then sagitally sectioned and stained in H&E stain. Kidney sections were also stained with anti-bodies against proliferating cell nuclear antigen (PCNA) (to identify sites of cell regeneration), macrophages, I-CAM-1, and smooth muscle. Also collected at sacrifice were tissues at and around the injection site (FIGS. 22, 25, 26).

[4] = system: bladder cancer cells (5637); assay: Cisplatin-induced apoptosis/necrosis in bladder cancer cells; format: cell-based, human; conditions: cisplatin at different concentrations

Molecule	glomerulosclerosis [1]	matrix deposition [1]	tubular atrophy [1]	progression of renal fibrosis ([1]; 5 mg/kg)	cisplatin-induced apoptosis [2]	tubule structure of the kidney (H&E sections) ([3]; 2.8 mg/kg b.w.)	cisplatin-induced inflammation of the kidney cortex ([3]; 2.8 mg/kg bw)	smooth muscle loss ([3]; 2.8 mg/kg bw)	serum creatinine at the highest dose ([3]; 28 mg/kg bw i.v.)	cisplatin-induced level of creatinine in serum ([3]; 0.28, 2.8 and 28 mg/kg bw i.v.)	ICAM-1 in kidney sections [3]	ICAM-1 in kidney sections ([3]; listed as SEQ ID NO 45)	proliferating cells / cellular regeneration (PCNA) [3]	proliferating cells / cellular regeneration (PCNA) ([3]; listed as SEQ ID NO 45)	macrophages accumulating in the kidneys [3]	macrophages accumulating in the kidneys ([3]; listed as SEQ ID NO 45)	nephrotoxic effects of cisplatin exposure ([3]; rat, in vivo)	renal tubular morphology (tubular atrophy, necrosis and dilation) ([3]; rat, in vivo)	apoptosis/necrosis induced by cisplatin (interference with anti-tumor activity) [4]	peak serum creatinine levels in response to cisplatin ([3]; BMP-7 30 ug/kg bw and 200 ug/kg bw)
CYFDDSSNVLCKKYRS (disulfide 1-11 (inferred); not fully specified) [SEQ ID NO:45]	attenuated the severity of glomerulosclerosis	attenuated the amount of matrix deposition	attenuated the severity of tubular atrophy	significantly attenuated	inhibits	improved	significantly reduced	reduced	more efficacious than the positive control; also recorded: return closer to base-line levels	reduces	reduced	less ICAM-positive material	increased the degree of cellular regeneration	Proliferating cells are observed	reduced	less macrophages	reduce or ameliorate	improved the morphology and structure of the kidney tubules	does not alter	–
BMP-7: recombinant human mature BMP-7 (BMP-7 or TDF-1), positive control therapy (protein) STGSKQRSQNRSKTPKNQEALRMANVAENSSSDQRQACKKHELYVSFRDLGWQDWIIAPEGYAAYYCEGECAFPLNSYMNATNHAIVQTLVHFINPETVPKPCCAPTQLNAISVLYFDDSSNVILKKYRNMVVRACGCH	–	–	–	–	–	–	–	–	–	–	–	–	–	–	–	–	–	Improvement of Renal Tubular Morphology	–	lower peak serum creatinine levels
